From paper PMC10819765, “The biochemically defined super relaxed state of myosin—A paradox” (The Journal of Biological Chemistry, 2023)

Molecular target: T1, porcine cardiac ventricle myosin (pc-HMM; beta-cardiac myosin heavy chain) (Sus scrofa, UniProt P79293)
T1 construct: gene MYH7; chymotryptic heavy meromyosin (pc-HMM); also S1 (pc-S1); with myosin light chains (RLC, essential light chain)
Assay: stopped-flow FRET (Trp to mant) displacement and multiple-turnover assay; kcat […] s^-1
Type: biochemical

T1 sequence (P79293 whole entry): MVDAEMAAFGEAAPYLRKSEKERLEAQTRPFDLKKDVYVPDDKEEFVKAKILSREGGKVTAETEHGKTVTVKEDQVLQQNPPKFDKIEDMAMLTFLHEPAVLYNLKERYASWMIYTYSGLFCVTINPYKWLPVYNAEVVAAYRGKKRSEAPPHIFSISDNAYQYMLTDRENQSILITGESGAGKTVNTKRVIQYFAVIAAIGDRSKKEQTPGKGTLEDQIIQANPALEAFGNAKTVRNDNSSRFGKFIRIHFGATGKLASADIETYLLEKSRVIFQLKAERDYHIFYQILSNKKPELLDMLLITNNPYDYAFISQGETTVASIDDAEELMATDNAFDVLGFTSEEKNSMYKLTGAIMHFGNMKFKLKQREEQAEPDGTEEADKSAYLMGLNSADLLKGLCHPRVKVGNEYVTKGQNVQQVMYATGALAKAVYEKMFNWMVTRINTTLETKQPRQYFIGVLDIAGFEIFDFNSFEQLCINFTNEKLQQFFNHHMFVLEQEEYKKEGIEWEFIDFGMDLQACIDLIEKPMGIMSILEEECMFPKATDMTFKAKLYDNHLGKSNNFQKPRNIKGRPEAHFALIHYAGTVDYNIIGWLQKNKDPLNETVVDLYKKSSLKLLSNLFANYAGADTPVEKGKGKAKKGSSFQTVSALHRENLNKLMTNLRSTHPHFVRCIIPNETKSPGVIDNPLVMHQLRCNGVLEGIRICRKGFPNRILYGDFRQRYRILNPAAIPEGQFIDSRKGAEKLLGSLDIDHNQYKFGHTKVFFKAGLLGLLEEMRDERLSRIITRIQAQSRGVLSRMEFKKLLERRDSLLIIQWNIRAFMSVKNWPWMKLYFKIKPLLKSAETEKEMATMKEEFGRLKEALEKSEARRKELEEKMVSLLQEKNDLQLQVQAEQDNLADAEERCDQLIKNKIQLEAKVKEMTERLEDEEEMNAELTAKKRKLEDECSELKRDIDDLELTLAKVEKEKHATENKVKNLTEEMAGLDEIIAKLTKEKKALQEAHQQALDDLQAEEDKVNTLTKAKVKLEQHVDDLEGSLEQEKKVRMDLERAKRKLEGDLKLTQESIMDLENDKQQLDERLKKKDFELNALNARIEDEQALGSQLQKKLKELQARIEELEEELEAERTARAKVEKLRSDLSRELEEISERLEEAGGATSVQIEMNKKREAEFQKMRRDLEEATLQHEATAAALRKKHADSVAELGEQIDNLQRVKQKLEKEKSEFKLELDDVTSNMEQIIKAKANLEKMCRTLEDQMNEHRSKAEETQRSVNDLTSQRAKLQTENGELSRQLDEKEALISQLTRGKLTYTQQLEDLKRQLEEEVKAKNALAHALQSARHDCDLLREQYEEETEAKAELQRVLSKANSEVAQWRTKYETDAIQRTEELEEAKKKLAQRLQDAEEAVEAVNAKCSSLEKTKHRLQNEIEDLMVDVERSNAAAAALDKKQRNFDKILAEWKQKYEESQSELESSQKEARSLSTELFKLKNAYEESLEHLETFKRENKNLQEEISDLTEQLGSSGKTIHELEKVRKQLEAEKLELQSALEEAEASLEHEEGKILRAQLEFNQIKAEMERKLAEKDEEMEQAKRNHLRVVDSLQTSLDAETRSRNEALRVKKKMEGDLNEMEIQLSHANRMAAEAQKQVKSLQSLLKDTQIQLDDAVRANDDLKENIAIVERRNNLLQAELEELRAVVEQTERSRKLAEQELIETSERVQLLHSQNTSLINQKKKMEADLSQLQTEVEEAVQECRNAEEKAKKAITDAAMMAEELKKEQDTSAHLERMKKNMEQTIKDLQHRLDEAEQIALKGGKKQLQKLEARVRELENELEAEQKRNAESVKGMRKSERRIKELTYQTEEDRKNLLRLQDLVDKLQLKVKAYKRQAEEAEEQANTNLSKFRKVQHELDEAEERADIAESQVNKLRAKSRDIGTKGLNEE

SMILES: CNc1ccccc1C(=O)O[C@H]1C[C@H](n2cnc3c(N)ncnc32)O[C@@H]1COP(=O)(O)OP(=O)(O)OP(=O)(O)O [mant.dATP]
- kcat (s^-1) / Mean: 0.0282 s⁻¹
